{"source": "patent US8318954B2", "about": "“Cleavable carnitine compound” (Nou Life Sciences, Inc., priority 2006, dated 2012)", "origin": "cited, not measured here", "key": {"[1]": {"system": "chinchilla laniger", "settings": "cited from earlier work"}, "[2]": {"system": "patients having diabetic neuropathy", "settings": "cited from earlier work"}, "[3]": {"system": "Wobbler mice", "settings": "twenty days oral, acetyl L-carnitine 200 mg/kg, carnitine mixture 200 mg/kg, α-lipoic acid 50 mg/kg; cited from earlier work"}, "[4]": {"system": "mice and rats", "settings": "cited from earlier work"}, "[5]": {"system": "diabetic rats", "settings": "streptozocin diabetic rats, sciatic nerve; amount administered not specified; cited from earlier work"}, "[6]": {"system": "diabetic rats", "settings": "diabetic rat, 30 days after sciatic nerve cutting; diet: 200 mg/kg acetyl L-carnitine, 200 mg/kg carnitine mixture, 50 mg/kg α-lipoic acid daily; cited from earlier work"}, "[7]": {"system": "subcutaneous adipocytes in rats", "settings": "long-term administration, rat; cited from earlier work"}, "[8]": {"system": "rats with unilateral sciatic nerve division", "settings": "50 mg/kg/day i.p. for 6 weeks; compared to no treatment; cited from earlier work"}, "[9]": {"system": "rats with unilateral sciatic nerve division", "settings": "cited from earlier work"}, "[10]": {"settings": "three weeks after noise exposure"}}, "note": "Entries after “also recorded” stand apart in the source; their conditions may differ. Read-outs that look alike come from different tables or passages of the source.", "data": [{"molecule": "CC(=O)O[C@H](CC(=O)[O-])C[N+](C)(C)C", "note": "[Acetyl-L-carnitine]", "values": [{"measurement": "outer hair cell loss", "setting": "[1]; 4- to 10-kHz region", "value": "< 10", "unit": "%"}, {"measurement": "inner and outer hair cell loss", "setting": "[1]; in vivo", "value": "reduced"}, {"measurement": "threshold shift at 2 to 4 kHz", "setting": "[1]; [10]", "value": "no threshold shift"}, {"measurement": "threshold shifts at 6 to 8 kHz", "setting": "[1]; [10]", "value": "< 10", "unit": "dB"}, {"measurement": "tolerability", "setting": "[2]; 1000 mg/day i.m. 10 days, then 2000 mg/day oral 355 days, 12 month period", "value": "well tolerated"}, {"measurement": "nerve conduction velocity NCV", "setting": "[2]; at 6- and 12 months, compared to placebo", "value": "statistically significant improvement"}, {"measurement": "Amplitude", "setting": "[2]; at 12 months, patients with impaired electrophysiological parameters at baseline, compared to placebo", "value": "statistically significant improvement"}, {"measurement": "pain (visual analogue scale)", "setting": "[2]; compared to placebo", "value": "significant reduction; also recorded: statistically significant improvement"}, {"measurement": "% increase in running time", "setting": "[3]", "value": "35 ± 3.2", "unit": "%"}, {"measurement": "dose that can be parenterally administered", "setting": "[4]; parenteral, mice and rats", "value": "up to 250 mg/kg"}, {"measurement": "tolerability on prolonged administration", "setting": "[4]; via the diet, 30 consecutive days, 200 mg/kg acetyl L-carnitine together with 100 mg/kg alpha lipoic acid", "value": "well tolerated"}, {"measurement": "NMCV", "setting": "[5]", "value": "34.5 ± 2.1", "unit": "m/sec"}, {"measurement": "Density of tibial nerve degenerate elements", "setting": "[6]", "value": "0.16 ± 0.02", "unit": "per 100 nm^2"}, {"measurement": "Number of tibial nerve degenerate elements", "setting": "[6]", "value": "560 ± 61"}, {"measurement": "size of subcutaneous adipocytes in aging skin", "setting": "[7]", "value": "blocks progressive increase in size"}, {"measurement": "immunostaining for Schwann cells, percentage area", "setting": "[8]", "value": 86, "unit": "% increase"}, {"measurement": "immunostaining for Schwann cells, total area", "setting": "[8]", "value": 111, "unit": "% increase"}, {"measurement": "immunostaining for nerve fibres, percentage area", "setting": "[8]", "value": 229, "unit": "% increase"}, {"measurement": "immunostaining for nerve fibres, total area", "setting": "[8]", "value": 264, "unit": "% increase"}, {"measurement": "regeneration into the distal stump, percentage area", "setting": "[8]", "value": "3,034 % increase"}, {"measurement": "regeneration into the distal stump, total area", "setting": "[8]", "value": "2,242 % increase"}, {"measurement": "number of TUNEL-positive neurons", "setting": "[9]; 2 weeks after axotomy, high-dose 50 mg/kg/day parenteral, 50 mg/kg/day", "value": "3 /group"}, {"measurement": "number of TUNEL-positive neurons", "setting": "[9]; 2 weeks after axotomy, high-dose 50 mg/kg/day parenteral, listed as ALCAR, 50 mg/kg/day", "value": "significantly reduced"}, {"measurement": "neuron loss", "setting": "[9]; 2 weeks after axotomy, high-dose 50 mg/kg/day, 50 mg/kg/day", "value": 2, "unit": "%"}, {"measurement": "neuron loss", "setting": "[9]; 2 weeks after axotomy, high-dose 50 mg/kg/day, listed as ALCAR, 50 mg/kg/day", "value": "significantly reduced"}, {"measurement": "number of TUNEL-positive neurons", "setting": "[9]; 2 weeks after axotomy, low-dose 10 mg/kg/day parenteral", "value": "6 /group"}, {"measurement": "neuron loss", "setting": "[9]; 2 weeks after axotomy, low-dose 10 mg/kg/day", "value": 0, "unit": "%"}, {"measurement": "neuron loss", "setting": "[9]; two months after axotomy, high-dose 50 mg/kg/day", "value": "−4", "unit": "%"}]}]}
